Measured values published in US10413583B2, “Synthetic substrates for enzymes that catalyze reactions of modified cysteines and related methods” (The University of Chicago, priority 2016, dated 2019).

Experiments:
MDA-MB-231 cells = test: Flow cytometry of DPP-3 in MDA-MB-231 cells; format: cell-based, human; conditions: MDA-MF-231 as printed; 1 μM inhibitor; 5 μM DPP-3, 5 min
Method: Cells were plated on a 10 cm dish with 10 mL of DMEM/High Glucose (10% FBS, 1% P/S, L-Glutamine, Sodium pyruvate) 36-48 hours prior to the day of experiment and maintained at 37° C., 5% CO2 so as to obtain 80-90% confluency. Cells were washed with DPBS and trypsinized with 1 mL 0.05% Trypsin. 5 mL of DMEM/High Glucose (10% FBS, L-Glutamine, Sodium pyruvate) was added and cells were spun down at 1200 rpm for 3 min. Media was discarded and cells were resuspended in 5 mL of Live Cell Imaging Solution and again spun down at 1200 rpm for 3 min. The cells pellets obtained were resuspended in 3-5 mL of Live Cell Imaging Solution and divided into 500 μL aliquots. The aliquots were treated with either 0.2% DMSO carrier or 1 μM of PalmB/ML348 or 1 μM/5 μM of ML349 inhibitor. After 30 min of incubation at room temperature, 1 μL of 2.5 mM DPP-3 in DMSO was added to each aliquot for a final concentration of 5 μM, and the solutions were mixed. After 5 min incubation at room temperature, fluorescence signal in FITC channel was measured for 10000 cells (5000 for HeLa experiments) on a LSR-Fortessa 4-15 HTS (BD digital instrument, 488 nm laser with 530/30 nm filter for FITC; BD, Franklin Lakes, N.J., United States of America). For analyzing DPP2 in HEK293T cells, the aliquots were treated with either 0.2% DMSO carrier or 2 μM of PalmB, 5 or 20 μM of ML348/ML349 and then analyzed by the protocol as mentioned above. Data was analyzed by FlowJo software version 10.0.8. For comparison of A431 starved versus non-starved, parallel 10 cm dishes of A431 cells were plated in 10 mL of DMEM (high glucose, 10% FBS, 1% P/S), and grown for 36 h. The growth media was removed, and replaced by 10 mL of either DMEM (High glucose) with 10% FBS to maintain “growth” conditions, or DMEM (High glucose) without FBS respectively for “starvation” conditions, and incubated for 14 h. After trypsinization, both plates were treated with 5 mL of DMEM (high glucose) for spinning the cells down, and further processing and analysis were performed as described above by flow cytometry.

HEPG2 cells = test: Epifluorescent imaging of DPP-5 and diacetyl rhodol in HepG2 cells (PalmB, ML348, ML349, palmitate); format: cell-based, human; conditions: for decrease in intensity of the signal from DPP-5: 10 μM inhibitor
Method: 250,000 HEK293T cells/well, 120,000 HeLa cells/well, or 100,000 HepG2 cells/well were plated in 700 μL DMEM glutamax (10% FBS+1% P/S) into 4-well chambered imaging dish (D35C4-20-1.5-N, Cellvis, Mountain View, Calif., United States of America), which were precoated with 5 μg Poly-D-lysine (30-70 KDa, Alfa Aesar, Haverhill, Mass., United States of America) for 2 h. After 20-24 h, the media was replaced by 1 μM Hoechst 33342 and DMSO/5 μM PalmB in 400 μL DMEM glutamax. After 30 min of incubation at 37° C., the cells were washed with 400 μL of Live Cell Imaging Solution and replaced by 1 μM DPP-5 with DMSO or 5 μM of PalmB in Live Cell Imaging Solution. After 20 min of incubation at 37° C., images were obtained on an inverted epifluorescence microscope (Olympus IX83; Olympus Corporation, Tokyo, Japan) attached with EMCCD camera (Photometrics EVOLVE™ Delta, Photometrics, Tucson, Ariz., United States of America) with 40× oil objective (N/A 1.3) for DPP-5 (excitation filter 500/20, dichroic chroma 89007, emission filter 535/30), Hoechst 33342 (excitation filter 402/15, emission filter 455/50, dichroic chroma 89013), and brightfield. Analyses were performed in ImageJ. For data analysis, the average fluorescence intensity per image in each experimental condition was obtained by selecting ROI in Brightfield and applying that to the corresponding DPP-5 image, average background fluorescence intensity was subtracted and data was normalized to the average fluorescence intensity of the DMSO control. Each experiment was repeated in at least two biological replicates with identical results.
16,000 HepG2 cells/well were plated in 100 μL DMEM glutamax (10% fetal bovine serum (FBS)) into 4 wells of a 96-well chambered imaging dish (P96-1-N, Cellvis, Mountain View Calif., United States of America), which were precoated with 0.7 μg Poly-D-lysine (30-70 KDa, Alfa Aesar, Haverhill, Mass., United States of America) for 2 hrs. After 24 h, cells were washed with Live Cell Imaging Solution and replaced by 1 μM Hoechst 33342 and DMSO/10 μM ML348/10 μM ML349/10 μM of both ML348 and ML349 in 100 μL DMEM glutamax. After 30 min of incubation at 37° C., the cells were washed with 100 μL of Live Cell Imaging Solution and replaced by 1 μM DPP-5 in Live Cell Imaging Solution. After 20 min of incubation at 37° C., images were obtained on an inverted epifluorescence microscope (Leica DMi8; Leica Microsystems, Wetzlar, Germany) equipped with a camera (Hamamatsu Orca-Flash 4.0; Hamamatsu, Hamamatsu City, Japan) with 63× oil objective (N/A 1.4) and light source (Sutter Lamda XL, 300 W Xenon; Sutter Instrument, Novato, Calif., United States of America) for DPP-5 (YFP filter cube 1525306), Hoechst 33342 (DAPI filter cube), and brightfield using Leica LASX software (Leica Microsystems, Wetzlar, Germany). Analyses were performed in ImageJ. Each experiment was repeated in three biological replicates and 8-12 images were considered for plotting bar graphs for quantification. For detailed data analysis, the average fluorescence intensity per image in each experimental condition was obtained by selecting ROI in Brightfield and applying that to the corresponding DPP-5 image, average background fluorescence intensity was subtracted and data was normalized to the average fluorescence intensity of the control experiment. […] 250,000 HEK293T cells/well were plated in 700 μL DMEM glutamax (10% FBS+1% P/S) into three wells of a 4-well chambered imaging dish (D35C4-20-1.5-N, Cellvis, Mountain View, Calif., United States of America), which were precoated with 5 μg Poly-Dlysine (30-70 KDa, Alfa Aesar, Haverhill, Mass., United States of America) for 2 h. After 18 h, the media was replaced by 1 μM Hoechst 33342 in 400 μL DMEM glutamax. […] After 20 min of incubation at 37° C., images were obtained and analyzed as described above. […]

O=C(CN1CCN(C(=O)c2ccco2)CC1)Nc1cc(C(F)(F)F)ccc1Cl [ML348]
effect of inhibitor on depalmitoylation signal measured by DPP-3 (MDA-MB-231 cells): knocks down the depalmitoylation signal
decrease in intensity of the signal from DPP-5 (HEPG2 cells; 1 μM DPP-5): about 30%

CCCCCCCCCCCCCCCC(=O)SC[C@@H](C(=O)NC)N(C)C(=O)Oc1ccc2c(c1)Oc1cc(N3CCN(C(=O)CCC(=O)O)CC3)ccc1C21OC(=O)c2ccccc21 (stereo partly shown) [DPP-5]
probe fluorescent signal in cells (HEPG2 cells; 1 μM probe for 20 minutes): robust intracellular fluorescent signal

COc1ccc(N2CCN(C(=O)c3cc4c(s3)-c3ccccc3S(=O)(=O)C4)CC2)cc1 [ML349]
decrease in intensity of the signal from DPP-5 (HEPG2 cells; 1 μM DPP-5): no change in signal

CCCCCCCCCC[C@@H]1C(=O)O[C@H]1CCc1ccc(OC)c(OC)c1 [PalmB, palmostatin B]
effect of inhibitor on depalmitoylation signal measured by DPP-3 (MDA-MB-231 cells): knocks down the depalmitoylation signal
turn-on response of DPP-5 blocked (HEPG2 cells; 5 μM PalmB pretreatment, 1 μM DPP-5): more than 95%
effect on DPP-5 signal in palmitate experiment (HEPG2 cells; 1% BSA with or without 1 mM palmitate, 5 μM PalmB): reduces the intensity of the DPP-5 signal
